Measurements from patent US20060052368A1 (priority 2002, published 2006).

Target: α7 nAChR subtype (Rattus norvegicus, UniProt Q05941)
Assay type: binding
Details: read-out: KD of radioligand from saturation curves

Chain of α7 nAChR subtype (Q05941 23-502 limits assumed): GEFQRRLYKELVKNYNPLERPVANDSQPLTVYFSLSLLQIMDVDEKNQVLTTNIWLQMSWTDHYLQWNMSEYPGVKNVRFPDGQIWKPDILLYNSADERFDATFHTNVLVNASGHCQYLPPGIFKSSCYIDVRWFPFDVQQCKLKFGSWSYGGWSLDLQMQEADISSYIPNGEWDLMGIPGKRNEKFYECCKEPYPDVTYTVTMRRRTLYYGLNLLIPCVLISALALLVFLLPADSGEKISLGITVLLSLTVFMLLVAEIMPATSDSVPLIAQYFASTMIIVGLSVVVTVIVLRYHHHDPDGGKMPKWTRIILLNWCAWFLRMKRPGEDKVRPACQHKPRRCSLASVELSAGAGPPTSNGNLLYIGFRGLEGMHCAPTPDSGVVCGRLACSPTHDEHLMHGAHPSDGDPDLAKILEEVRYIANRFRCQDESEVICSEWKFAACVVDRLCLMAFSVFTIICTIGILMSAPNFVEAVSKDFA

^125I-α-Bungarotoxin [^125I-α-BTX]
Kd: 1.67 nM
